What was measured:
Assay in all cases: relative viability (nuclei count vs DMSO), 5 days (fraction); higher = more cells survive
BGJ398 + Phenformin = compound: CCN1CCN(c2ccc(Nc3cc(N(C)C(=O)Nc4c(Cl)c(OC)cc(OC)c4Cl)ncn3)cc2)CC1 [BGJ398] + N=C(N)NC(=N)NCCc1ccccc1 [Phenformin] (partner 250 µM)
Summary of the method: (§1)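 Each reported value is a median over duplicate plates. It expresses relative viability: treated-well nuclei count divided by vehicle-well nuclei count. Lung cancer cell lines in 1536-well plates were dosed by pin tool a day after seeding, alone with one drug or with a fixed anchor-drug dose plus five library-drug doses (not always all listed) in √10 steps, and nuclei were counted after 5 days.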

BGJ398 = compound: CCN1CCN(c2ccc(Nc3cc(N(C)C(=O)Nc4c(Cl)c(OC)cc(OC)c4Cl)ncn3)cc2)CC1 [BGJ398]
Summary of the method: (§2)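 Cells of lung cancer lines were placed in 1536-well plates and kept overnight at 37 °C. Pinning then delivered five library-drug doses (not always all listed), spaced by √10, onto plates anchored with vehicle, and the cells were left 5 days without changing medium. One step fixed, permeabilised and stained them with Hoechst, and MetaXpress counted nuclei in 4× images. Viability, as a median over plates, is treated-well nuclei divided by vehicle-well nuclei, with acceptance only at control CV below 25% and at least one doubling.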

[1] = compound: C1=CC2=NC=CN=C2C=C1/C=C/3\C(=O)NC(=O)S3
Summary of the method: as §2

[2] = compound: C1=CC2=NC=CN=C2C=C1/C=C/3\C(=O)NC(=O)S3 + CC1(C)CCC(c2ccc(Cl)cc2)=C(CN2CCN(c3ccc(C(=O)NS(=O)(=O)c4ccc(N[C@H](CCN5CCOCC5)CSc5ccccc5)c(S(=O)(=O)C(F)(F)F)c4)cc3)CC2)C1 [Navitoclax] (partner 0.5 µM)
Summary of the method: as §1

Cell Line	relative viability (BGJ398 + Phenformin; first compound 0.01 µM)	relative viability (BGJ398 + Phenformin; first compound 0.03162 µM)	relative viability (BGJ398 + Phenformin; first compound 0.1 µM)	relative viability (BGJ398 + Phenformin; first compound 0.3162 µM)	relative viability (BGJ398 + Phenformin; first compound 1 µM)	relative viability (BGJ398; 0.01 µM)	relative viability (BGJ398; 0.03162 µM)	relative viability (BGJ398; 0.1 µM)	relative viability (BGJ398; 0.3162 µM)	relative viability (BGJ398; 1 µM)	relative viability ([1]; 0.02 µM)	relative viability ([1]; 0.06325 µM)	relative viability ([1]; 0.2 µM)	relative viability ([1]; 0.6325 µM)	relative viability ([1]; 2 µM)	relative viability ([2]; first compound 0.02 µM)	relative viability ([2]; first compound 0.06325 µM)	relative viability ([2]; first compound 0.2 µM)	relative viability ([2]; first compound 0.6325 µM)	relative viability ([2]; first compound 2 µM)
NCI-H522	0.585	0.599	0.692	0.593	0.603	0.918	0.89	1.04	0.82	0.874	0.934	1.13	1	0.75	0.751	–	–	–	–	–
HCC-15	0.439	0.497	0.504	0.475	0.496	1.01	1.01	1.07	1.13	0.887	1	0.921	0.972	0.921	0.818	0.662	0.655	0.746	0.679	0.682
A-427	0.354	0.336	0.273	0.151	0.211	0.985	0.979	0.967	0.815	0.753	0.963	1.14	1.08	0.918	0.975	0.935	0.977	0.993	0.934	0.877
NCI-H2228	0.328	0.32	0.243	0.299	0.28	0.814	1.18	1.38	0.876	0.963	0.898	1.06	1.22	0.898	0.842	1.15	0.868	1.44	0.671	0.607
NCI-H1734	0.368	0.398	0.408	0.376	0.432	0.895	1.02	1.06	0.93	1.05	0.94	–	1.07	0.916	0.635	0.799	–	0.897	0.78	0.877
PC-14	0.586	–	0.642	–	0.369	1.01	0.732	1.04	0.766	0.93	1.02	1.02	1.01	0.982	0.989	0.871	1	1	1	1.08
NCI-H1915	0.374	0.367	0.365	0.354	0.367	0.971	1.02	0.995	0.965	0.939	0.98	1.1	1.07	0.966	0.966	0.757	0.796	0.806	0.732	0.797
NCI-H1666	0.55	0.609	0.622	0.581	0.557	1	1.03	0.966	0.98	0.8	0.944	0.962	0.966	0.971	0.893	0.9	0.954	0.913	0.989	0.919
HCC-366	0.632	0.672	0.6	0.613	0.673	1.01	1.01	1.07	1.08	0.974	0.979	0.787	1.01	0.942	0.985	1.1	0.776	1.1	1.1	0.897
SK-MES-1	0.584	0.691	0.677	0.589	0.593	0.941	1.05	1.05	0.981	1.01	0.971	1.08	1.02	0.984	0.875	–	1.4	1.3	1.21	1.23
SW 1573	0.312	0.456	0.405	0.407	0.368	0.975	0.934	0.94	0.893	0.999	0.984	1.26	1.09	0.948	0.79	0.879	1.05	1.05	0.866	0.945
NCI-H661	0.286	0.316	0.295	0.302	0.291	0.977	0.997	0.983	0.987	0.914	1.01	1.04	1.02	0.972	1.07	–	–	–	–	–
PC-3 [JPC-3]	0.468	–	0.445	0.418	0.46	1.05	–	1.05	0.695	0.919	0.991	1.07	1.06	1	1.04	0.744	0.765	0.783	0.749	0.766
NCI-H1623	0.641	0.427	0.619	0.548	0.497	1.08	0.805	1.05	0.908	1.03	0.936	0.806	0.909	0.957	0.786	–	–	–	–	–
